ChEMBL document CHEMBL1201862, “PubChem BioAssay data set” (2004)
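In this assay, cells in 96-well plates receive the compound at five concentrations for 48 hours. Endpoints are linearly interpolated between the surrounding concentrations. GI50: concentration for 50% inhibition of growth.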 Calls of active or inactive are those of the source. Cut-off read from the data, not from the text of the source: active = GI50 up to about 1.1 µM and inactive = higher.

What was measured:
Experiment in all cases: NCI tumour cell line growth inhibition, 48 h
[1] = tested on: 786-0
[2] = tested on: A549
[3] = tested on: ACHN
[4] = tested on: DU-145
[5] = tested on: EKVX
[6] = tested on: HCT-15
[7] = tested on: IGROV-1
[8] = tested on: KM12
[9] = tested on: MDA-MB-231
[10] = tested on: MOLT-4
[11] = tested on: Malme-3M
[12] = tested on: OVCAR-8
[13] = tested on: RXF 393
[14] = tested on: SF-539
[15] = tested on: SK-MEL-5
[16] = tested on: T47D
[17] = tested on: UACC-257
[18] = tested on: UO-31

Row | Structure (SMILES) | GI50 [1] | GI50 [2] | GI50 [3] | GI50 [4] | GI50 [5] | GI50 [6] [µM] | GI50 [7] | GI50 [8] | GI50 [9] | GI50 [10] | GI50 [11] | GI50 [12] | GI50 [13] | GI50 [14] | GI50 [15] | GI50 [16] | GI50 [17] | GI50 [18]
1 | Cc1ccc(O)c(C2=CC(c3cccc(Br)c3)SC(=N)N2)c1 (stereo not drawn) | 23.7 µM (inactive) | 25.8 µM (inactive) | 23.3 µM (inactive) | 34.5 µM (inactive) | 21 µM (inactive) | 14.5 | 18.8 µM (inactive) | 27 µM (inactive) | 25.8 µM (inactive) | 18.9 µM (inactive) | 25.2 µM (inactive) | 35.2 µM (inactive) | 19.5 µM (inactive) | 22.4 µM (inactive) | 17 µM (inactive) | 26.5 µM (inactive) | 20.1 µM (inactive) | 25 µM (inactive)
2 | CCCCCCCCCCCCCCC(O)C[N+](C)(CCO)CCO (stereo not drawn) | 1.98 µM (inactive) | 10.2 µM (inactive) | 6.01 µM (inactive) | 11 µM (inactive) | 17.7 µM (inactive) | 5.96 | 1.15 µM (inactive) | 1.94 µM (inactive) | 1.14 µM (inactive) | 1.91 µM (inactive) | 2.06 µM (inactive) | 4.11 µM (inactive) | 1.41 µM (inactive) | 2.4 µM (inactive) | 4.06 µM (inactive) | 8.07 µM (inactive) | 11.1 µM (inactive) | 4.27 µM (inactive)
3 | Cc1cccc(Nc2nc3ccccc3nc2NS(=O)(=O)c2ccccc2)c1 | 39.4 µM (inactive) | 14.1 µM (inactive) | 28.9 µM (inactive) | 44.3 µM (inactive) | 30.5 µM (inactive) | 16 | 19.9 µM (inactive) | 20.3 µM (inactive) | 39.5 µM (inactive) | 12.6 µM (inactive) | 17.1 µM (inactive) | 29.3 µM (inactive) | 27.7 µM (inactive) | 33.8 µM (inactive) | 19.4 µM (inactive) | 18.5 µM (inactive) | 26.1 µM (inactive) | 15.1 µM (inactive)
4 | COCN1C(N)=C(C(=O)OC(C)(C)C)C2=CC(=O)C=CC21C (stereo not drawn) | 11.9 µM (inactive) | 18.9 µM (inactive) | 7.01 µM (inactive) | 11.9 µM (inactive) | 16.5 µM (inactive) | 13.9 | 13.1 µM (inactive) | 16.6 µM (inactive) | 15.3 µM (inactive) | 3.7 µM (inactive) | 9.75 µM (inactive) | 18 µM (inactive) | 6.25 µM (inactive) | 17.4 µM (inactive) | 15.3 µM (inactive) | 2.59 µM (inactive) | 10.6 µM (inactive) | 13.6 µM (inactive)
5 | CCNc1ccc2c(c1)Cc1ccccc1-2 | > 100 µM (inactive) | 73.5 µM (inactive) | 77.4 µM (inactive) | 59.8 µM (inactive) | 32.4 µM (inactive) | 7.38 | 37 µM (inactive) | 26.1 µM (inactive) | 64.1 µM (inactive) | 12.9 µM (inactive) | 67.9 µM (inactive) | 51.5 µM (inactive) | > 100 µM (inactive) | 43.8 µM (inactive) | 25.8 µM (inactive) | > 100 µM (inactive) | 49.7 µM (inactive) | 52.4 µM (inactive)
6 | CC(C)N(C(C)C)S(=O)(=O)C[C@]12CC[C@H](CC13OCC(CS(=O)(=O)c1ccccc1)O3)C2(C)C (stereo partly drawn) | 45.9 µM (inactive) | 36.6 µM (inactive) | 47.8 µM (inactive) | 74.6 µM (inactive) | 39.3 µM (inactive) | 47 | > 28.7 µM (inactive) | 36.4 µM (inactive) | > 100 µM (inactive) | 6.98 µM (inactive) | 89.1 µM (inactive) | 47 µM (inactive) | 49 µM (inactive) | 44.8 µM (inactive) | 29.4 µM (inactive) | 27.1 µM (inactive) | 28.2 µM (inactive) | 69.5 µM (inactive)
7 | C[C@H](N)C(=O)Nc1ccc(-c2nc3ccccc3s2)cc1 | 15.7 µM (inactive) | 15.6 µM (inactive) | 17.4 µM (inactive) | 18.4 µM (inactive) | 11.8 µM (inactive) | 17.7 | 15.2 µM (inactive) | 16.3 µM (inactive) | 18.4 µM (inactive) | 16.3 µM (inactive) | 19.1 µM (inactive) | 25.6 µM (inactive) | 29.3 µM (inactive) | 36.9 µM (inactive) | 20.1 µM (inactive) | 17.5 µM (inactive) | 39.1 µM (inactive) | 12.3 µM (inactive)
8 | CC12CC3c4ccccc4CN1C3(c1ccccc1)OC2=O (stereo not drawn) | > 100 µM (inactive) | > 100 µM (inactive) | > 100 µM (inactive) | > 100 µM (inactive) | > 100 µM (inactive) | > 100 | > 100 µM (inactive) | > 100 µM (inactive) | > 100 µM (inactive) | > 100 µM (inactive) | > 100 µM (inactive) | > 100 µM (inactive) | > 100 µM (inactive) | > 100 µM (inactive) | > 100 µM (inactive) | > 100 µM (inactive) | > 100 µM (inactive) | > 100 µM (inactive)
9 | O=[N+]([O-])c1cccc(/C=N/NC2=CS(=O)(=O)C=C2)c1 | > 100 µM (inactive) | > 100 µM (inactive) | > 100 µM (inactive) | > 100 µM (inactive) | > 100 µM (inactive) | > 100 | > 100 µM (inactive) | > 100 µM (inactive) | > 100 µM (inactive) | > 100 µM (inactive) | > 100 µM (inactive) | > 100 µM (inactive) | > 100 µM (inactive) | > 100 µM (inactive) | > 100 µM (inactive) | > 100 µM (inactive) | > 100 µM (inactive) | > 100 µM (inactive)
10 | O=C1CSC(c2ccccc2O)N1c1nc2cc3sc(N4C(=O)CSC4c4ccccc4O)nc3cc2s1 (stereo not drawn) | > 100 µM (inactive) | 3.85 µM (inactive) | > 44.6 µM (inactive) | 34.7 µM (inactive) | 61.9 µM (inactive) | 7.05 | 18.9 µM (inactive) | > 68.4 µM (inactive) | > 57.8 µM (inactive) | 4.06 µM (inactive) | > 77.3 µM (inactive) | 37.2 µM (inactive) | > 100 µM (inactive) | 59.6 µM (inactive) | 50.5 µM (inactive) | 47.8 µM (inactive) | > 36.3 µM (inactive) | 23.3 µM (inactive)
11 | Cc1ccccc1NC(=O)O/N=C(\Cl)C(C)C | 1.81 µM (inactive) | 19.1 µM (inactive) | 1.69 µM (inactive) | 17.2 µM (inactive) | 2.29 µM (inactive) | 2.09 | 9.42 µM (inactive) | 18.6 µM (inactive) | 17.7 µM (inactive) | 2.74 µM (inactive) | 2.36 µM (inactive) | 17.5 µM (inactive) | 12.6 µM (inactive) | 9.08 µM (inactive) | 11 µM (inactive) | 3.79 µM (inactive) | 14.9 µM (inactive) | 17.4 µM (inactive)
